# Patent US4443619A, “Chlorocitric acids” (Hoffmann-La Roche Inc., priority 1981, dated 1984)
# Columns and labels:
# [1] = Effect of stereoisomers of chlorocitric acid on food consumption in meal-fed rats (Example 14); format: in vivo, Charles River female rats; details: mean ± S.E.
# Procedure: Animals were fasted 48 hr, then meal-fed the 70% glucose diet described by A. C. […] Following 5 to 12 days alimentation on the meal-feeding regimen, rats were dosed with the appropriate compounds orally by intubation 1/2 hr before the 3 hr meal. Food cups were weighed immediately after the meal. The control group consisted of 5 to 10 rats, while the experimental group consisted of 4 to 6 rats.
# [2] = Anorectic activities of stereoisomers: 3-day food consumption and body weight gain in meal-fed rats; format: in vivo, Charles River female rats; details: 1.32 mmoles/kg oral, 3 days, mean ± S.E.
# Procedure: Charles River female rats (Charles River Breeding Laboratories, Wilmington, Mass.), weighing 196 to 210 g, were individually housed in wire-bottomed cages in a temperature-regulated (22° C.) light-controlled room (12 hr light, 6 a.m. to 6 p.m. and 12 hr dark, 6 p.m. to 6 a.m.). Animals were fasted 48 hr, then meal-fed a 70% glucose diet from 8 to 11 a.m. Following 5 to 12 days alimentation on the meal-feeding regimen, rats were dosed with the appropriate compounds orally by intubation 1/2 hr before the 3 hr meal for 3 days. The total food consumption and body weight gained during the 3 day period were determined. The control group consisted of 16 rats, while the experimental group consists of 8 rats.
# [3] = Anorectic effect in 8 hour meal-fed Zucker rats (Example 17); format: in vivo, lean (Fa/-) and obese (fa/fa)
# Procedure: Lean (Fa/-) Zucker rats and obese (fa/fa) Zucker rats of both sexes were individually housed in wire-bottomed cages in a temperature-regulated (22° C.) light-controlled room (12 hr light, 6 a.m. to 6 p.m. and 12 hr dark, 6 p.m. 6 a.m.). The animals were fed a high carbohydrate (70% glucose) diet ad libitum for 13 days, dosed with the indicated compounds by oral intubation for 9 days and allowed to recover for 3 days. The animals were then meal fed from 8 a.m. to 4 p.m. for a period of 5 days, following which they were continued on the same meal schedule for an additional 6 days. During the 6-day period, the animals were administered the indicated compounds by oral intubation at 8 a.m. and 12 p.m. Food cups were weighed immediately after the meal.
# [4] = Body composition of meal-fed rats, 16 day study (Example 20); format: in vivo, Charles River female rats; details: 16 days
# Procedure: Two month old Charles River female rats (Charles River Breeding Laboratories, Wilmington, Mass.) were individually housed in wire-bottomedcages in a temperature-regulated (22° C.) light-controlled room (12 hr light, 6 a.m. to 6 p.m. and 12 hr dark, 6 p.m. to 6 a.m.). […] (1) control, (2) (-)-threo-chlorocitric acid (1.0 mmoles/kg, 227 mg/kg) administered by oral intubation 30 min before the 3 hr meal, and (3) (-)-threo-chlorocitric acid (1.1 mmoles/kg, 250 mg/kg as a dietary admixture for the 3 hr meal. Treatment was continued for 16 days. After 16 days of treatment, rats were killed by decapitation and blood was removed. […] C. Sullivan, et al, Am. J. Clinical Nutrition, 30 767 (1977). […] Total carcass lipid data are expressed in grams of percentages of carcass weight. An aliquot of saponified carcass extract was neutralized and total carcass nitrogen was determined using the Kjeldahl procedure described in "Hawks" Physiological Chemistry," B. L. Oser, ed., McGraw Book Co., New York, N.Y., 1965, page 1214. Carcass protein data are expressed in grams and percentages of carcass weight.
# [5] = test system: Cholesterol Synthesis; assay: Cholesterol synthesis in isolated rat hepatocytes (Example 23); format: cell-based, rat (female Charles River); details: 2 mM, 60 min, 37° C., 2000 µM
# Procedure: Female Charles River rats were fasted 48 hr, then meal-fed a 1% corn oil, 70% glucose diet for 7 to 14 days from 8 to 11 a.m. The isolated rat hepatocytes were prepared by perfusing the liver in situ. The hepatocytes were incubated in an oscillating water bath at 37° C. for 60 min. […] All incubations were done in triplicate and all experiments were repeated at least twice. […] The contents of the center well were transferred to scintillation counting fluid and ^14 CO2 content was determined. […] The media was then acidified, extracted with hexane, and the extract counted (to determine the rate of lipogenesis). The conversion of ^3 H2 O and [^14 C]alanine into fatty acids or sterols was determined in a PDS/3, Mark II liquid scintillation counting system.
# [6] = test system: Stomach Emptying; assay: Effect on stomach emptying ([14C]glucose load) in rats (Example 25); format: in vivo; details: 0.33 mmoles/kg oral, 60 min after [14C]glucose load, mean ± S.E.
# Procedure: Rats were trained to consume a 3 hr 70% glucose meal from 8 a.m. to 11 a.m. daily. On the experimental day, compounds were administered orally by intubation 30 min before a [^14 C]glucose load was given also by intubation. […] Sixty minutes later the rats were killed by decapitation; blood and stomachs were collected on ice.
# Data are expressed as follows: dpm×10^3 per ml of serum and dpm×10^3 per stomach.
# [7] = Anorectic activity, body weight and carcass analysis in mammals (summary statements); format: in vivo
# [8] = dietary admixture, 1.1 mmoles (250 mg)/kg
# [9] = oral intubation, 1.0 mmoles (227 mg)/kg
smiles,measurement,setting,value
"O=C(O)C[C@@](O)(C(=O)O)[C@@H](Cl)C(=O)O [(-)-threo-Chlorocitric acid, (-)-threo-chlorocitric acid]",Food consumption,"[1]; 0.66 mmoles/kg oral, control 8.2 ± 1.2",4.8 ± 0.7 g
same,Food consumption,"[1]; 2.63 mmoles/kg oral, control 13.5 ± 0.8",2.2 ± 0.5 g
same,3-Day Body Weight Gain,[2],-22.4 ± 2.3 g
same,3-Day Food Consumption,[2],10.5 ± 1.3 g
same,Daily Food Consumption,"[3]; Fa/- lean, 0.66 mmoles/kg oral, treatment day 1",12.5 ± 1.1 g
same,Daily Food Consumption,"[3]; Fa/- lean, 0.66 mmoles/kg oral, treatment day 2",7.0 ± 0.9 g
same,Daily Food Consumption,"[3]; Fa/- lean, 0.66 mmoles/kg oral, treatment day 3",7.2 ± 0.7 g
same,Daily Food Consumption,"[3]; Fa/- lean, 0.66 mmoles/kg oral, treatment day 4",5.4 ± 1.1 g
same,Daily Food Consumption,"[3]; Fa/- lean, 0.66 mmoles/kg oral, treatment day 5",7.3 ± 1.5 g
same,Daily Food Consumption,"[3]; Fa/- lean, 0.66 mmoles/kg oral, treatment day 6",7.5 ± 1.3 g
same,Daily Food Consumption,"[3]; Fa/- lean, 0.66 mmoles/kg, day 0 (pretreatment)",10.8 ± 1.0 g
same,Daily Food Consumption,"[3]; fa/fa obese, 0.66 mmoles/kg oral, treatment day 1",10.7 ± 0.7 g
same,Daily Food Consumption,"[3]; fa/fa obese, 0.66 mmoles/kg oral, treatment day 2",5.9 ± 1.5 g
same,Daily Food Consumption,"[3]; fa/fa obese, 0.66 mmoles/kg oral, treatment day 3",5.8 ± 0.9 g
same,Daily Food Consumption,"[3]; fa/fa obese, 0.66 mmoles/kg oral, treatment day 4",5.5 ± 0.9 g
same,Daily Food Consumption,"[3]; fa/fa obese, 0.66 mmoles/kg oral, treatment day 5",4.9 ± 1.0 g
same,Daily Food Consumption,"[3]; fa/fa obese, 0.66 mmoles/kg oral, treatment day 6",5.1 ± 1.1 g
same,Daily Food Consumption,"[3]; fa/fa obese, 0.66 mmoles/kg, day 0 (pretreatment)",13.1 ± 1.1 g
same,"Carcass Lipid, % of carcass weight",[4]; [8],4.01 ± 0.45 % of carcass weight
same,"Carcass Lipid, total",[4]; [8],7.01 ± 0.92 g
same,"Carcass Nitrogen, % of carcass weight",[4]; [8],4.10 ± 0.14 % of carcass weight
same,"Carcass Nitrogen, total",[4]; [8],7.16 ± 0.29 g
same,Carcass Weight,[4]; [8],176 ± 8 g
same,"Carcass Lipid, % of carcass weight",[4]; [9],1.94 ± 0.13 % of carcass weight
same,"Carcass Lipid, total",[4]; [9],2.74 ± 0.19 g
same,"Carcass Nitrogen, % of carcass weight",[4]; [9],4.27 ± 0.22 % of carcass weight
same,"Carcass Nitrogen, total",[4]; [9],6.57 ± 0.30 g
same,Carcass Weight,[4]; [9],155 ± 4 g
same,"Cholesterol Synthesis, 3H2O converted",[5],98 % of control
same,"Serum, total per ml",[6],1.9 ± 0.4 dpm × 10^3
same,"Stomach Contents, total per stomach",[6],2760 ± 69 dpm × 10^3
same,anorectic activity as measured by reduction in food consumption,"[7]; acute meal-fed assay utilizing three diets and pyramiding dose studies, compared with hydroxycitric acid",significantly more active
same,carcass analysis: origin of weight loss,[7]; chronic studies,weight loss was due to reduction in body lipids
same,appetite suppression and reduced body weight gain,"[7]; short- and long-term chronic studies, compared with hydroxycitric acid or citric acid",suppressed appetite and reduced body weight gain in mammals more efficaciously than hydroxycitric acid or citric acid
